Measured values taken from US9982005B2, “Macrolides and methods of their preparation and use” (President and Fellows of Harvard College, priority 2013, dated 2018).
Converted amounts (≈) assume the structure as drawn. Like-named read-outs stand apart in the source and are kept apart here.

What was measured:
Type in all cases: cell-based
[1] = system: SA101 S. aureus ATCC29213; experiment: broth dilution MIC, S. aureus SA101
Text: (§1) We have collected MIC data for a total of 50 novel macrolides that this platform has produced against over 21 unique strains of B. subtilis, E. coli, S. aureus, S. pneumoniae, and H. influenzae, including several multidrug-resistant strains, with a special focus on macrolide resistant mechanisms (vide supra). Azithromycin was included as a control macrolide. CLSI standard procedures for broth dilution MIC determination were used. […] These genotypes can be constitutive or inducible. The finding that C4-epi (unnatural) isomers of the “azaketolide” macrolide class have enhanced activities relative to C4 natural isomers is very exciting.

[2] = system: EC107 E. coli ATCC25922; experiment: broth dilution MIC, E. coli EC107
Text: as §1

[3] = system: EC878 E. coli tolC; experiment: broth dilution MIC, E. coli EC878
Text: as §1

[4] = system: EC882 E. coli imp; experiment: broth dilution MIC, E. coli EC882
Text: as §1

[5] = system: BS1723 B. subtilis BS168 WT wild type; experiment: broth dilution MIC, B. subtilis BS1723; conditions: BS1723 B. subtilis BS168 WT wild type
Text: as §1

[6] = system: BS1725 B. subtilis ermC; experiment: broth dilution MIC, B. subtilis BS1725
Text: as §1

[7] = Staphylococcus aureus, ATCC29213, SA101 S. aureus ATCC29213, read-out: MIC
[8] = Escherichia coli, read-out: MIC
[9] = Bacillus subtilis, read-out: MIC
[10] = Bacillus subtilis, BS1725 B. subtilis ermC (+ery)
[11] = Bacillus subtilis, BS1725 B. subtilis ermC (−ery)

Row | Compound | MIC [1, 7] [µg/mL] | MIC [2, 8] [µg/mL] | MIC ([3]; Escherichia coli) [µg/mL] | MIC ([4]; Escherichia coli) [µg/mL] | MIC [5, 9] [µg/mL] | MIC [6, 10] [µg/mL] | MIC [6, 11] [µg/mL] | MIC ([1]; SA101 S. aureus ATCC29213) [µg/mL] | MIC [2] [µg/mL] | MIC [3] [µg/mL] | MIC [4] [µg/mL] | MIC [5] [µg/mL] | MIC ([6]; BS1725 B. subtilis ermC (+ery)) [µg/mL] | MIC ([6]; BS1725 B. subtilis ermC (−ery)) [µg/mL]
1 | CC[C@H]1OC(=O)[C@H](C)C(=O)[C@H](C)[C@@H](O[C@@H]2OC(C)CC(N(C)C)C2O)[C@](C)(OC)C[C@@H](C)CN(C(C)=O)[C@H](C)[C@H]2N(CCCCn3cc(-c4ccccn4)nn3)C(=O)O[C@]12C (some centres unmarked) [FSM-20766] | 16 (≈ 18.7 µM) | > 32 | 4 (≈ 4.67 µM) | 1 (≈ 1.17 µM) | 32 (≈ 37.4 µM) | > 32 |  |  |  |  |  |  |  | 
2 | CC[C@H]1OC(=O)[C@](C)(F)C(=O)C[C@@H](O[C@@H]2OC(C)CC(N(C)C)C2O)[C@](C)(OC)C[C@@H](C)CN[C@H](C)[C@H]2N(CCCCn3cc(-c4cccnn4)nn3)C(=O)O[C@]12C (some centres unmarked) [FSM-10667] | > 32 | > 32 | 16 (≈ 19.5 µM) | 4 (≈ 4.88 µM) | > 32 | > 32 | > 32 |  |  |  |  |  |  | 
3 | CC[C@H]1OC(=O)[C@H](C)C(=O)C[C@@H](O[C@@H]2OC(C)CC(N(C)C)C2O)[C@](C)(OC)C[C@@H](C)CN(C(C)=O)[C@H](C)[C@H]2N(CCCCn3cc(-c4nc5ccccc5s4)nn3)C(=O)O[C@]12C (some centres unmarked) [FSM-10791] | > 32 | > 32 | 2 (≈ 2.23 µM) | 0.5 (≈ 0.557 µM) | > 32 | > 32 | > 32 |  |  |  |  |  |  | 
4 | CC[C@H]1OC(=O)[C@H](C)C(=O)C[C@@H](O[C@@H]2OC(C)CC(N(C)C)C2O)[C@](C)(OC)C[C@@H](C)CN[C@H](C)[C@H]2N(CCCCn3cc(-c4ccccn4)nn3)C(=O)O[C@]12C (some centres unmarked) [FSM-10786] | > 32 | > 32 | 2 (≈ 2.5 µM) | 0.25 (≈ 0.312 µM) | > 32 | > 32 | > 32 |  |  |  |  |  |  | 
5 | CC[C@H]1OC(=O)[C@](C)(F)C(=O)C[C@@H](O[C@@H]2OC(C)CC(N(C)C)C2O)[C@](C)(OC)C[C@@H](C)CN[C@H](C)[C@H]2N(CCCCn3cc(-c4nccs4)nn3)C(=O)O[C@]12C (some centres unmarked) [FSM-10666] | > 32 | > 32 | 16 (≈ 19.4 µM) | 4 (≈ 4.85 µM) | > 32 | > 32 | > 32 |  |  |  |  |  |  | 
6 | CC[C@H]1OC(=O)[C@H](C)C(=O)C[C@@H](O[C@@H]2OC(C)CC(N(C)C)C2O)[C@@](C)(OC)C[C@@H](C)CN(C(C)=O)[C@H](C)[C@H]2N(CCCCn3cc(-c4cccnn4)nn3)C(=O)O[C@]12C (some centres unmarked) [FSM-30513] | > 32 | > 32 | > 32 | > 32 | > 32 | > 32 | > 32 |  |  |  |  |  |  | 
7 | CC[C@H]1OC(=O)[C@](C)(F)C(=O)C[C@@H](O[C@@H]2OC(C)CC(N(C)C)C2O)[C@](C)(OC)C[C@@H](C)CN[C@H](C)[C@H]2N(CCCCn3cc(-c4ccccn4)nn3)C(=O)O[C@]12C (some centres unmarked) [FSM-10662] | > 32 | > 32 | 16 (≈ 19.6 µM) | 4 (≈ 4.89 µM) | > 32 | > 32 | > 32 |  |  |  |  |  |  | 
8 | CC[C@H]1OC(=O)[C@H](C)C(=O)C[C@@H](O[C@@H]2OC(C)CC(N(C)C)C2O)[C@@](C)(OC)C[C@@H](C)CN[C@H](C)[C@H]2N(CCCCn3cc(-c4nccs4)nn3)C(=O)O[C@]12C (some centres unmarked) [FSM-30501] | > 32 | > 32 | > 32 | > 32 | > 32 | > 32 | > 32 |  |  |  |  |  |  | 
9 | CC[C@H]1OC(=O)[C@H](C)C(=O)C[C@@H](O[C@@H]2OC(C)CC(N(C)C)C2O)[C@](C)(OC)C[C@@H](C)CN[C@H](C)[C@H]2N(CCCCn3cc(-c4cccnn4)nn3)C(=O)O[C@]12C (some centres unmarked) [FSM-10785] | > 32 | > 32 | 2 (≈ 2.5 µM) | 1 (≈ 1.25 µM) | > 32 | > 32 | > 32 |  |  |  |  |  |  | 
10 | CC[C@H]1OC(=O)[C@H](C)C(=O)C[C@@H](O[C@@H]2OC(C)CC(N(C)C)C2O)[C@@](C)(OC)C[C@@H](C)CN[C@H](C)[C@H]2N(CCCCn3cc(-c4ccccn4)nn3)C(=O)O[C@]12C (some centres unmarked) [FSM-30517] | > 32 | > 32 | > 32 | > 32 | > 32 | > 32 | > 32 |  |  |  |  |  |  | 
11 | CC[C@H]1OC(=O)[C@H](C)C(=O)C[C@@H](O[C@@H]2OC(C)CC(N(C)C)C2O)[C@](C)(OC)C[C@@H](C)CN(C(C)=O)[C@H](C)[C@H]2N(CCCCn3cc(-c4nccs4)nn3)C(=O)O[C@]12C (some centres unmarked) [FSM-10790] | > 32 | > 32 | 4 (≈ 4.72 µM) | 1 (≈ 1.18 µM) | > 32 | > 32 | > 32 |  |  |  |  |  |  | 
12 | CC[C@H]1OC(=O)[C@H](C)C(=O)C[C@@H](O[C@@H]2OC(C)CC(N(C)C)C2O)[C@@](C)(OC)C[C@@H](C)CN(C(C)=O)[C@H](C)[C@H]2N(CCCCn3cc(-c4nccs4)nn3)C(=O)O[C@]12C (some centres unmarked) [FSM-30503] | > 32 | > 32 | > 32 | > 32 | > 32 | > 32 | > 32 |  |  |  |  |  |  | 
13 | CC[C@H]1OC(=O)[C@](C)(F)C(=O)C[C@@H](O[C@@H]2OC(C)CC(N(C)C)C2O)[C@](C)(OC)C[C@@H](C)CN[C@H](C)[C@H]2N(CCCCn3cc(-c4nc5ccccc5s4)nn3)C(=O)O[C@]12C (some centres unmarked) [FSM-10671] | > 32 | > 32 | 32 (≈ 36.6 µM) | 8 (≈ 9.15 µM) | > 32 | > 32 | > 32 |  |  |  |  |  |  | 
14 | CC[C@H]1OC(=O)[C@H](C)C(=O)C[C@@H](O[C@@H]2OC(C)CC(N(C)C)C2O)[C@](C)(OC)C[C@@H](C)CN(C(C)=O)[C@H](C)[C@H]2N(CCCCn3cc(-c4ccccn4)nn3)C(=O)O[C@]12C (some centres unmarked) [FSM-10792] | > 32 | > 32 | 4 (≈ 4.75 µM) | 1 (≈ 1.19 µM) | > 32 | > 32 | > 32 |  |  |  |  |  |  | 
15 | spiramycin [reference compound] |  |  |  |  |  |  |  | 8 | >32 | 16 | 1 | 2 | 16 | 2
